Data on three molecules can be found in publication PMC3103407 (2011).

The target of series [1] is T1, Gap1p (Saccharomyces cerevisiae, UniProt P19145, A297V/K16R/K9R).
T1 sequence (P19145 1-602 K9R/K16R/A297V): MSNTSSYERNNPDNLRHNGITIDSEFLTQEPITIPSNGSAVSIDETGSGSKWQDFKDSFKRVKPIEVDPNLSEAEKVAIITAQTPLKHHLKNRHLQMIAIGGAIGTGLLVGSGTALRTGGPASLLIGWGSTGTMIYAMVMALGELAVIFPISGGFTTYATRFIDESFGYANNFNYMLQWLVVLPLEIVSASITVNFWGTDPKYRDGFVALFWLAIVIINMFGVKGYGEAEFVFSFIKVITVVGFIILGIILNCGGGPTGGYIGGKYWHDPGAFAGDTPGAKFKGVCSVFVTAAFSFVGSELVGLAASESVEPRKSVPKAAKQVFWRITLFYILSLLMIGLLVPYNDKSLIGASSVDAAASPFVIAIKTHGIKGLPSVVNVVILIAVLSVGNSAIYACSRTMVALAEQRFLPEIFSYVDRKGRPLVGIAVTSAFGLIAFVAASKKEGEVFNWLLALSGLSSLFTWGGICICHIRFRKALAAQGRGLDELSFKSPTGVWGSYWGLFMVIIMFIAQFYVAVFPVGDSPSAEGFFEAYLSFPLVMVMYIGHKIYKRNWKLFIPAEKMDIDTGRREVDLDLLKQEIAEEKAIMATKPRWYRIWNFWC
Put plainly: competitive inhibition of […]-glycine uptake in yeast cells. The class given is cell-based.

In series [2] the target is T2, Gap1p (Saccharomyces cerevisiae, UniProt P19145, K16R/K9R).
T2 sequence (P19145 1-602 K9R/K16R): T1 sequence (P19145 1-602 K9R/K16R/A297V) with V297A
The series is described as above. The class given is cell-based.

Substrate in series [3]: NCC(=O)O
Put plainly: cells, lysate or membranes. The class given is cell-based, Saccharomyces cerevisiae. The note with it: active site (amino acid binding pocket).

Changes are numbered by the printed parent chain. Names and notes keep the numbering of the source.

The term Ki denotes a dissociation constant, usually derived from enzyme kinetics or from competition with a known ligand. Read a low Ki as higher affinity. The term Km denotes the substrate concentration at which the rate is half of its maximum.

For the molecule `NC(=O)NCCC[C@H](N)C(=O)O` [citrulline], the values for the Ki on Gap1p [1] and at Gap1p [2] were ~35.6 µM and ~36.6 µM, respectively.

B1: Gap1p (Saccharomyces cerevisiae S288C; K16R/K9R) (protein)
chain: T1 sequence (P19145 1-602 K9R/K16R/A297V) with V297A
As to B1, the Km in series [3] amounted to 20.0 ± 5.3 µM.

B2: Gap1p (Saccharomyces cerevisiae S288C; A297V/K16R/K9R) (protein)
chain: T1 sequence (P19145 1-602 K9R/K16R/A297V)
With B2, in series [3], the Km came out at 12.7 ± 1.12 µM.
